According to patent publication US12171760B2, “Use of glucocorticoid receptor modulators to potentiate checkpoint inhibitors” (Corcept Therapeutics Incorporated, priority 2016, dated 2024):

Columns and labels:
mouse MC38 cancer cells = experiment: MC38 tumor growth in mice, combination of CORT125134 and anti PD-1; type: in vivo; conditions: CORT125134 30 mg/kg orally daily in combination with mouse anti PD-1 antibody (clone RPM1-14, 10 mg/kg) i.p. twice a week; C57BL/6 mice, s.c. MC38 tumors; FIG. 1
Experimental: Suspensions of mouse MC38 cancer cells were injected subcutaneously into the left flank of 5-6 week old immunocompetent female mice (C57BL/6), 1 million cells per mouse. Tumors were allowed to grow until they reach a volume of 100 mm^3. Mice were then grouped into three groups, ten (10) per group. Group I was dosed with the anti-PD-1 vehicle (PBS, 10 ml/kg) i. p. twice a week and the CORT125134 vehicle p.o. (10% DMSO, 0.1% Tween 80 and 89.9% HPMC (0.5%), 10 ml/kg) daily. Group II was dosed with the mouse anti PD-1 antibody (clone RPM1-14, 10 mg/kg) i. p. twice a week. Group III was dosed with the mouse anti PD-1 antibody (clone RPM1-14, 10 mg/kg) i. p. twice a week and CORT125134 (a SGRM) (30 mg/kg) orally on a daily basis. The longest (L) and shortest (S) diameters of the tumors were measured three times a week with electronic calipers and tumor volume was calculated using the formula for an ellipsoid sphere: S^2×L×(0.5). The tumor growth data are shown in FIG. 1, in which the mean tumor volume as compared to the mean pre-dosing tumor volume for each group of mice is plotted against the number of days of tumor growth since initiation of the treatment.

breast cancer = experiment: Treating a breast cancer patient with the combination therapy (tumor load by enhanced magnetic resonance imaging); type: in vivo, human; conditions: CORT125134 200 mg once a day for eight weeks with pembrolizumab 3 mg/kg every 2 weeks
Experimental: A patient suffering from breast cancer is treated with pembrolizumab at a dose of 3 mg/kg every 2 weeks and CORT125134 at a dose of 200 mg once a day for eight weeks. Their tumor load is monitored using enhanced magnetic resonance imaging before, during and after the treatment.

mouse CT26 cancer cells = experiment: CT26 tumor growth in mice, combination of CORT125134 or CORT125281 and anti CTLA4; type: in vivo; conditions: SGRM 30 mg/kg orally daily in combination with mouse anti CTLA4 antibody (clone 9D9, 10 mg/kg) i.p. twice a week; C57BL/6 mice, s.c. CT26 tumors; FIG. 3
Experimental: Suspensions of mouse CT26 cancer cells were injected subcutaneously into the left flank of 6-7 week old immunocompetent female mice (C57BL/6), ½ million cells per mouse. Tumors were allowed to grow until they reached a volume of 50-100 mm^3. Mice were then grouped into three groups, ten (10) per group. Group I was dosed with the anti-CTLA4 vehicle (PBS, 10 ml/kg) i. p. twice a week and the CORT125134 vehicle p.o. (10% DMSO, 0.1% Tween 80 and 89.9% HPMC (0.5%), 10 ml/kg) daily. Group II was dosed with the mouse anti CTLA4 antibody (clone 9D9, 10 mg/kg) i. p. twice a week. Group III was dosed with the mouse anti CTLA4 antibody (clone 9D9, 10 mg/kg) i. p. twice a week and CORT125134 (a SGRM) (30 mg/kg) orally on a daily basis. Group IV was dosed with the mouse anti CTLA4 antibody (clone 9D9, 10 mg/kg) i. p. twice a week and CORT125281 (a SGRM) (30 mg/kg) orally on a daily basis.
The longest (L) and shortest (S) diameters of the tumors were measured three times a week with electronic calipers and tumor volume was calculated using the formula for an ellipsoid sphere: S^2×L×(0.5). The tumor growth data are shown in FIG. 3, in which the mean tumor volume for each group is plotted against the number of days of tumor growth since initiation of the treatment.

mouse A20 cancer cells = experiment: A20 tumor growth in mice, combination of CORT125281 and anti PD-1; type: in vivo; conditions: CORT125281 30 mg/kg orally daily in combination with mouse anti PD-1 antibody (clone RPM1-14, 10 mg/kg) i.p. twice a week; C57BL/6 mice, s.c. A20 tumors; FIG. 2
Experimental: Suspensions of mouse A20 cancer cells were injected subcutaneously into the left flank of 5-6 week old immunocompetent female mice (C57BL/6), ½ million cells per mouse. Tumors were allowed to grow until they reached a volume of 100 mm^3. Mice were then grouped into three groups, ten (10) per group. Group I was dosed with the anti-PD-1 vehicle (PBS, 10 ml/kg) i. p. twice a week and the CORT125281 vehicle p.o. (10% DMSO, 0.1% Tween 80 and 89.9% HPMC (0.5%), 10 ml/kg) daily. Group II was dosed with the mouse anti PD-1 antibody (clone RPM1-14, 10 mg/kg) i. p. twice a week. Group III was dosed with the mouse anti PD-1 antibody (clone RPM1-14, 10 mg/kg) i. p. twice a week and CORT125281 (a SGRM) (30 mg/kg) orally on a daily basis.
The longest (L) and shortest (S) diameters of the tumors were measured three times a week with electronic calipers and tumor volume was calculated using the formula for an ellipsoid sphere: S^2×L×(0.5). The tumor growth data are shown in FIG. 2, in which the mean tumor volume for each group of mice is plotted against the number of days of tumor growth since initiation of the treatment.

| Compound | reducing tumor growth (mean tumor volume as compared to the mean pre-dosing tumor volume) (mouse MC38 cancer cells) | reduction of the size of the tumor at the end of the treatment period (breast cancer) | reducing tumor growth (mean tumor volume) (mouse CT26 cancer cells) | reducing tumor growth (mean tumor volume) (mouse A20 cancer cells) |
| --- | --- | --- | --- | --- |
| Cn1cc(S(=O)(=O)N2CCC3=Cc4c(cnn4-c4ccc(F)cc4)C[C@]3(C(=O)c3cc(C(F)(F)F)ccn3)C2)cn1 [CORT125134, (R)-(1-(4-fluorophenyl)-6-((1-methyl-1H-pyrazol-4-yl)sulfonyl)-4,4a,5,6,7,8-hexahydro-1H-pyrazolo[3,4-g]isoquinolin-4a-yl)(4-(trifluoromethyl)pyridin-2-yl)methanone] | superior to both the anti PD-1 group and the vehicle group in reducing tumor growth | more than 20% | superior to both the anti CTLA4 group and the vehicle group in reducing tumor growth |  |
| Cn1ncc(S(=O)(=O)N2CC[C@H]3Cc4c(cnn4-c4ccc(F)cc4)C[C@]3(C(=O)c3cc(C(F)(F)F)ccn3)C2)n1 [CORT125281, ((4aR,8aS)-1-(4-fluorophenyl)-6-((2-methyl-2H-1,2,3-triazol-4-yl)sulfonyl)-4,4a,5,6,7,8,8a,9-octahydro-1H-pyrazolo[3,4-g]isoquinolin-4a-yl)(4-(trifluoromethyl)pyridin-2-yl)methanone] |  |  | superior to both the anti CTLA4 group and the vehicle group in reducing tumor growth | superior to both the anti PD-1 group and the vehicle group in reducing tumor growth |
